Data: the supplement of paper PMC10307832

Assays:
Assay in all cases: relative viability (nuclei count vs DMSO), 5 days (fraction); higher = more cells survive
EHT 1864 + Crizotinib = compound: C1COCCN1CC2=CC(=O)C(=CO2)OCCCCCSC3=C4C=CC(=CC4=NC=C3)C(F)(F)F [EHT 1864] + C[C@@H](Oc1cc(-c2cnn(C3CCNCC3)c2)cnc1N)c1c(Cl)ccc(F)c1Cl [Crizotinib] (partner 1 µM)
Summary of the method: (§1)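 Five library-drug doses in √10 steps were combined with a fixed anchor-drug dose, or a single drug was given alone, by pin tool to lung cancer cell lines in 1536-well plates the day after seeding. Nuclei were stained and counted after 5 days. Relative viability is the nuclei count in treated wells over that in vehicle wells, taken as the median of duplicate plates.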

EHT 1864 + Phenformin = compound: C1COCCN1CC2=CC(=O)C(=CO2)OCCCCCSC3=C4C=CC(=CC4=NC=C3)C(F)(F)F [EHT 1864] + N=C(N)NC(=N)NCCc1ccccc1 [Phenformin] (partner 250 µM)
Summary of the method: as §1

EHT 1864 + Navitoclax = compound: C1COCCN1CC2=CC(=O)C(=CO2)OCCCCCSC3=C4C=CC(=CC4=NC=C3)C(F)(F)F [EHT 1864] + CC1(C)CCC(c2ccc(Cl)cc2)=C(CN2CCN(c3ccc(C(=O)NS(=O)(=O)c4ccc(N[C@H](CCN5CCOCC5)CSc5ccccc5)c(S(=O)(=O)C(F)(F)F)c4)cc3)CC2)C1 [Navitoclax] (partner 0.5 µM)
Summary of the method: as §1

EHT 1864 + Decitabine = compound: C1COCCN1CC2=CC(=O)C(=CO2)OCCCCCSC3=C4C=CC(=CC4=NC=C3)C(F)(F)F [EHT 1864] + Nc1ncn([C@H]2C[C@H](O)[C@@H](CO)O2)c(=O)n1 [Decitabine] (partner 2 µM)
Summary of the method: as §1

| Cell Line | relative viability (EHT 1864 + Crizotinib; first compound 0.04 µM) | relative viability (EHT 1864 + Crizotinib; first compound 0.1265 µM) | relative viability (EHT 1864 + Crizotinib; first compound 0.4 µM) | relative viability (EHT 1864 + Crizotinib; first compound 1.265 µM) | relative viability (EHT 1864 + Crizotinib; first compound 4 µM) | relative viability (EHT 1864 + Phenformin; first compound 0.04 µM) | relative viability (EHT 1864 + Phenformin; first compound 0.1265 µM) | relative viability (EHT 1864 + Phenformin; first compound 0.4 µM) | relative viability (EHT 1864 + Phenformin; first compound 1.265 µM) | relative viability (EHT 1864 + Phenformin; first compound 4 µM) | relative viability (EHT 1864 + Navitoclax; first compound 0.04 µM) | relative viability (EHT 1864 + Navitoclax; first compound 0.1265 µM) | relative viability (EHT 1864 + Navitoclax; first compound 0.4 µM) | relative viability (EHT 1864 + Navitoclax; first compound 1.265 µM) | relative viability (EHT 1864 + Navitoclax; first compound 4 µM) | relative viability (EHT 1864 + Decitabine; first compound 0.04 µM) | relative viability (EHT 1864 + Decitabine; first compound 0.1265 µM) | relative viability (EHT 1864 + Decitabine; first compound 0.4 µM) | relative viability (EHT 1864 + Decitabine; first compound 1.265 µM) | relative viability (EHT 1864 + Decitabine; first compound 4 µM) |
| --- | --- | --- | --- | --- | --- | --- | --- | --- | --- | --- | --- | --- | --- | --- | --- | --- | --- | --- | --- | --- |
| NCI-H2126 | 1.01 | 0.938 | 0.998 | 0.992 | 0.988 | 0.557 | 0.515 | 0.571 | 0.543 | 0.567 | 0.92 | 0.76 | 0.823 | 0.853 | 0.814 | 0.652 | 0.572 | 0.547 | 0.62 | 0.566 |
| NCI-H2170 | 1.15 | 1.17 | 1.2 | 1.18 | 1.21 | 0.442 | 0.349 | 0.392 | 0.368 | 0.37 | 0.674 | 0.511 | 0.646 | 0.573 | 0.56 | 0.488 | 0.451 | 0.488 | 0.473 | 0.467 |
| NCI-H2347 | 0.693 | 0.518 | 0.715 | 0.709 | 0.868 | 0.585 | 0.432 | 0.478 |  | 0.46 | 0.77 | 0.708 | 0.812 | 0.714 | 0.828 | 0.571 | 0.488 | 0.675 | 0.64 | 0.559 |
| NCI-H2405 | 0.835 | 0.809 | 0.837 | 0.816 | 0.918 | 0.445 | 0.42 | 0.44 | 0.289 | 0.37 | 0.978 | 0.832 | 0.965 |  | 0.725 | 0.832 | 0.717 | 0.785 | 0.736 | 0.772 |
| NCI-H3122 | 0.327 | 0.278 | 0.276 | 0.315 | 0.245 | 0.415 | 0.373 | 0.362 | 0.345 | 0.304 | 1.06 | 1.01 | 0.987 | 1.06 | 0.987 | 0.373 | 0.423 | 0.42 | 0.432 | 0.339 |
| PC-3 [JPC-3] | 0.973 | 0.979 | 0.925 | 0.909 | 1.01 | 0.507 | 0.439 | 0.451 | 0.478 | 0.51 | 0.788 | 0.72 | 0.849 | 0.844 | 0.805 | 0.801 | 0.745 | 0.877 | 0.954 | 0.844 |
| PC-14 | 0.966 | 0.962 | 0.832 | 0.865 | 0.899 | 0.652 |  | 0.615 | 0.594 | 0.513 | 1.06 | 0.957 | 0.952 | 1.02 | 1.06 | 0.213 | 0.201 | 0.265 | 0.244 | 0.162 |
| RERF-LC-KJ | 0.794 | 0.816 | 0.769 | 0.784 | 0.787 | 0.381 | 0.428 | 0.453 | 0.393 | 0.404 | 0.985 | 0.829 | 0.823 | 0.931 | 0.888 | 0.588 | 0.691 | 0.61 | 0.694 | 0.576 |
| SK-LU-1 | 0.982 | 0.865 | 0.927 | 0.911 | 0.737 | 0.538 | 0.36 | 0.52 | 0.575 | 0.587 | 0.867 | 0.768 | 0.824 | 1.01 | 0.744 | 0.732 | 0.632 | 0.567 | 0.657 | 0.658 |
| SK-MES-1 | 1 | 0.972 | 1.04 | 0.968 | 0.996 | 0.726 | 0.67 | 0.605 | 0.577 | 0.602 | 1.3 | 1.13 | 1.29 | 1.31 | 1.17 | 0.365 | 0.398 | 0.377 | 0.448 | 0.41 |
| SW 1573 | 0.827 | 0.74 | 0.803 | 0.813 | 0.856 | 0.436 | 0.34 | 0.347 | 0.334 | 0.382 | 0.999 | 0.978 | 1.01 | 0.958 | 0.725 | 0.655 | 0.478 | 0.463 | 0.55 | 0.339 |
| UMC-11 | 0.611 | 0.537 | 0.568 | 0.607 | 0.507 | 0.356 | 0.275 |  | 0.324 | 0.31 | 0.345 | 0.294 | 0.27 | 0.304 | 0.322 | 0.447 | 1.15 | 0.731 | 0.693 | 0.736 |
